Experimental data taken from US20220289668A1 (PHARMALEADS, priority 2019, published 2022).

Experiments:
LTA4H = biological target: T1, LTA4H (Homo sapiens, UniProt P09960); assay: LTA4 hydrolase assay, substrate (L)-Ala-β-naphthylamide; format: biochemical; conditions: recombinant enzyme 0.6 μg/mL, substrate 1 mM, 50 mM Tris HCl pH 7.4, 100 mM NaCl, 37° C.; read-out: LTA4H (nM), inhibitory power Ki
T1 sequence (P09960 1-611): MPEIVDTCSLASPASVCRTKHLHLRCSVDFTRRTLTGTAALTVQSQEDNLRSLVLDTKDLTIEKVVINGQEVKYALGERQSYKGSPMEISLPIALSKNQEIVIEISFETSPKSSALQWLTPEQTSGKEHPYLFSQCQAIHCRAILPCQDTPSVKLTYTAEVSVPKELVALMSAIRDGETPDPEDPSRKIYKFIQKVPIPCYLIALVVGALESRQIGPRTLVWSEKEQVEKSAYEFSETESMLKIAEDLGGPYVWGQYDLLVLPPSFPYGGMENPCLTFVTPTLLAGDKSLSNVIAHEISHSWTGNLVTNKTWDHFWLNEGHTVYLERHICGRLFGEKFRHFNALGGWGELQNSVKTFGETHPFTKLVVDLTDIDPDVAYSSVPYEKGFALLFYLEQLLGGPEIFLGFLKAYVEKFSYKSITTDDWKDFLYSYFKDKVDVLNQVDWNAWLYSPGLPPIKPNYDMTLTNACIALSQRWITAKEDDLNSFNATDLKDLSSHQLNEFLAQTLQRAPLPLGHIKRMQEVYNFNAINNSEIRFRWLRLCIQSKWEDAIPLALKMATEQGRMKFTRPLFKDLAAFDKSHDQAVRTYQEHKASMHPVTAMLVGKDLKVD
Description: (§1) The claimed inhibitors were tested on different Zn^2+ peptidases representative of this family of enzymes, capable of inhibiting them, such as type 1 neprilysin (E.C.3.4.24.11, NEP-1), neutral aminopeptidase (E.C.3.4.11.2, APN) and LTA4H.
(§2) The assays are carried out on […] in the presence of fluorigenic substrates specific for each enzyme.
(§3) Generally speaking, the inhibitors are pre-incubated, in increasing concentrations, with the enzyme for 10 min, at 37° C. The substrate is then added and the mixture is incubated for 30 to 60 min at 37° C. The reaction is stopped at 4° C. and the reading of the fluorescence emitted is done by reading the Berthold Twinkle LS970B plate. An inhibition curve is then plotted as a function of the concentration of inhibitor using GraphPad software, then the Ki is determined from the Cheng Prusoff formula: Ki=IC50/(1+(S/Km)).
To determine the Ki values of the different inhibitors with regard to LTA4H, 0.6 μg/mL of recombinant enzyme were incubated beforehand for 30 minutes at 37° C. in 50 mM Tris HCl, pH 7.4, 100 mM NaCl, with increasing concentrations of inhibitor (from 10^−10 M to 10^−4 M of final concentration). The fluorescent substrate (L)-Ala-β-naphthylamide (1 mM) is added in a final volume of 100 μL and is incubated at 37° C. for 15 minutes. The fluorescence values are measured on a Berthold Twinkle LB 970 (λex=340 nm, λem=405 nm, energy of the lamp 10000). Samples containing 0% hydrolysis were obtained by adding the substrate to the buffer and samples having a relative activity of 100% were prepared without inhibitor. The percentage cleavage was evaluated and compared with a relative activity of 100%, and the IC50 values were determined as a consequence. The Ki values of the inhibitors (average of at least three double independent assays) were calculated using the equation Ki=IC50/(1+[S]/Km).

[1] = biological target: T2, Neprilysin (NEP), purified from rabbit kidney (Oryctolagus cuniculus, UniProt P08049); assay: Neprilysin (NEP) assay, fluorigenic substrate Dansyl-Gly-(NO2)Phe-β-Ala; format: biochemical; conditions: rabbit kidney NEP 200 ng/mL, substrate 20 μM, 50 mM Tris pH 7.4, 37° C.; read-out: NEP (nM), inhibitory power Ki
T2 construct: Neprilysin, purified from rabbit kidney; from tissue; host or cells: rabbit kidney
T2 sequence (P08049 1-750): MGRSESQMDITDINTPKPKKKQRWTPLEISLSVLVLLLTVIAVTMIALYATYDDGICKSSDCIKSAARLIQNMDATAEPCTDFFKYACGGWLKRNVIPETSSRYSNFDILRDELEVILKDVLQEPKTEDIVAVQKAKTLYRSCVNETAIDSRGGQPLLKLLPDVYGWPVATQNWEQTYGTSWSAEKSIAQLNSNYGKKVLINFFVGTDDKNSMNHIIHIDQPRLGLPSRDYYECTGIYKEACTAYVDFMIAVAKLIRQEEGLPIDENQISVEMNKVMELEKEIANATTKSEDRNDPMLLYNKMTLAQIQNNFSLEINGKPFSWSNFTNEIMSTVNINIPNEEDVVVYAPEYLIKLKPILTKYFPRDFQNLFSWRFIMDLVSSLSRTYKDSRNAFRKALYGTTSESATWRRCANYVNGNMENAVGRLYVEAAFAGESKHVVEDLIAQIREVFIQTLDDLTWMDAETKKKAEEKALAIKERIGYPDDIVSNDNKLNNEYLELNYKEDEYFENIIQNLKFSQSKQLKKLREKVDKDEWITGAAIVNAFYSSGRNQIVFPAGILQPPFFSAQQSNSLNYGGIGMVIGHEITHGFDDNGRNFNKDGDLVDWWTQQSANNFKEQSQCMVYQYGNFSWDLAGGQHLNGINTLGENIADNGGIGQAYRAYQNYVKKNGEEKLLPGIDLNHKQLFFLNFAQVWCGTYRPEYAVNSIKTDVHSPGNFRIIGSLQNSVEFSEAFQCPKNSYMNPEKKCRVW
Description: as §1, §2, §3
Neprilysin, purified from rabbit kidney (Aubry M et al. (1987), Biochem Cell Biol 65, 398-404), is used at final 200 ng/mL in 50 mM Tris buffer pH 7.4. The substrate, Dansyl-Gly-(NO2)Phe-β-Ala (Goudreau N et al. (1994), Anal Biochem, 219, 87-95) (Km=37 μM), is dissolved in ethanol and is used at final 20 μM. Increasing concentrations (from 10^−10 to 10^−3 M) of inhibitors are pre-incubated for 15 min at 37° C. with NEP in 50 mM Tris buffer, pH 7.4. The substrate is next added and the incubation is continued for 60 min. The reaction is stopped by placing the plate in ice for 10 min. The reading of the fluorescence emitted is carried out in a fluorimeter at λex=355 nm, λem=535 nm.

[2] = biological target: T3, aminopeptidase N (APN), recombinant human enzyme (Homo sapiens, UniProt P15144); assay: Neutral aminopeptidase (APN) assay, substrate L-Ala-β-NA; format: biochemical; conditions: APN-rh 50 ng/mL, substrate 50 μM, 50 mM Tris pH 7.4, 37° C.; read-out: APN (nM), inhibitory power Ki
T3 construct: purchased R&D System
T3 sequence (P15144 whole entry): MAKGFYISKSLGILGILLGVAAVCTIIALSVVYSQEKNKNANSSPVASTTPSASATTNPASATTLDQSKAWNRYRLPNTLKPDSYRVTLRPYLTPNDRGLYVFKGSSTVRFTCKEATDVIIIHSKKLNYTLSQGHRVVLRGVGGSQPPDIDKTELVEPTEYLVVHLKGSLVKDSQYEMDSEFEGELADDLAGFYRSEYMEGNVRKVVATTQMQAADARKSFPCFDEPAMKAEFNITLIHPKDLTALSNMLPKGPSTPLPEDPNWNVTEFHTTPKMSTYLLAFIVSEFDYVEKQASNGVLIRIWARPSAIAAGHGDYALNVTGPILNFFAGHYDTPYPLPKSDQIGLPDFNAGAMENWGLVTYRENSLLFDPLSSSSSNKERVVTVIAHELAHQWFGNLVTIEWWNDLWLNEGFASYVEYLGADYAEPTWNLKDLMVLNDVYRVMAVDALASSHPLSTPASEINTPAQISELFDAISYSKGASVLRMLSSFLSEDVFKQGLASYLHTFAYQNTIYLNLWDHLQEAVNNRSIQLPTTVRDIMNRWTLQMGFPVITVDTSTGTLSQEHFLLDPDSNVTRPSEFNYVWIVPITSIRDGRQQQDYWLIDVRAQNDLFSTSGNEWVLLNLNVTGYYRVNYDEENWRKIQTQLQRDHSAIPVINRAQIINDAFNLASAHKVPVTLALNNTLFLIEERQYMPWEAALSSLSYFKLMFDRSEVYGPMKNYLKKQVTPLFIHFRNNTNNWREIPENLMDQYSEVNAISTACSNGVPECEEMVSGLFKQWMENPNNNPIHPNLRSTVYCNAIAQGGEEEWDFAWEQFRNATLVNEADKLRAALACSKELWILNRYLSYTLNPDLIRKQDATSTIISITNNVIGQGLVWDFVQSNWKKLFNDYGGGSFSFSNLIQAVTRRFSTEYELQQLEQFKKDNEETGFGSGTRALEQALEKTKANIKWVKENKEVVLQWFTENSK
Description: as §1, §2, §3
The measurement of the inhibition of aminopeptidase N (APN) is carried out by use of the substrate L-Ala↓β-NA (50 μM, Sigma Aldrich). The inhibitory powers are determined by using recombinant human enzyme (rh) (50 ng/mL; R&D System). Increasing concentrations (from 10^−10 to 10^−3 M) of inhibitors are pre-incubated for 30 min at 37° C. with APN-rh in 50 mM Tris buffer, pH 7.4. The substrate is next added and the incubation is continued for 30 min at 37° C. The reaction is stopped by placing the plate in ice for 10 min. The reading of the emitted fluorescence is measured in a fluorimeter at λex=340 nm, λem=405 nm.

male OF1 mice = assay: Hot plate test on mice, intravenous administration; format: in vivo; conditions: for analgesic response: mice

C[C@H](NC(=O)[C@H](Cc1ccc(-c2ccccc2)cc1)CN(O)C=O)C(=O)O
Ki (LTA4H): 6.1 ± 0.7 nM
Ki [1]: 0.08 ± 0.01 nM
Ki [2]: 86 ± 8 nM

C[C@H](NC(=O)[C@@H](Cc1ccc(-c2ccccc2)cc1)CN(O)C=O)C(=O)O
Ki (LTA4H): > 10000 nM
Ki [1]: 44.1 ± 2.2 nM
Ki [2]: 817 ± 80 nM

C[C@H](NC(=O)[C@H](Cc1ccccc1)CN(O)C=O)C(=O)O [Ia-1, (S)-2-((R)-2-benzyl-3-(N-hydroxyformamido)propanamido) propanoic Acid]
Ki (LTA4H): 7.5 ± 0.4 nM
Ki [1]: 3.3 ± 0.7 nM
Ki [2]: 143 ± 9 nM

C[C@H](NC(=O)[C@@H](Cc1ccccc1)CN(O)C=O)C(=O)O [Ia-2, (S)-2-((S)-2-benzyl-3-(N-hydroxyformamido)propanamido) propanoic Acid]
Ki [1]: 17.7 ± 0.9 nM
Ki [2]: > 10000 nM

O=CN(O)C[C@@H](Cc1ccccc1)C(=O)N[C@@H](Cc1ccccc1)C(=O)O [Ib-1, (S)-2-((R)-2-benzyl-3-(N-hydroxyformamido)propanamido)-3-phenylpropanoic Acid]
Ki (LTA4H): 26 ± 2 nM
Ki [1]: 0.5 ± 0.1 nM
Ki [2]: 24 ± 0.4 nM
analgesic response (male OF1 mice; Ib-1 10 mg/kg in association with THC 0.375 mg/kg, intravenous coadministration): 65%
analgesic response (male OF1 mice; compound Ib-1 alone, 10 mg/kg intravenous, vehicle EtOH/Tween 80/Water (1/1/8)): 10%
analgesic effect of the association (in words) (male OF1 mice; intravenous association of THC and Ib-1 at inactive doses, 10 min after injection, male OF1 mice): considerable synergic analgesic effect

O=CN(O)C[C@H](Cc1ccccc1)C(=O)N[C@@H](Cc1ccccc1)C(=O)O [Ib-2, (S)-2-((S)-2-benzyl-3-(N-hydroxyformamido)propanamido)-3-phenylpropanoic Acid]
Ki [1]: 23.1 ± 1.1 nM
Ki [2]: > 10000 nM

O=CN(O)C[C@@H](Cc1ccccc1)C(=O)N[C@H](CC(=O)O)Cc1ccccc1 [Ic-1, (S)-3-((R)-2-benzyl-3-(N-hydroxyformamido)propanamido)-4-phenyl butanoic Acid]
Ki (LTA4H): 443 ± 75 nM
Ki [1]: 6.3 ± 0.3 nM
Ki [2]: 12 ± 1.7 nM

CCCCCc1cc(O)c2c(c1)OC(C)(C)[C@@H]1CCC(C)=C[C@@H]21 [THC, reference compound]
analgesic response (male OF1 mice; THC alone, 0.375 mg/kg intravenous): 12%
